Paper PMC9921564, “Novel Indole-Containing Hybrids Derived from Millepachine: Synthesis, Biological Evaluation and Antitumor Mechanism Study” (Molecules, 2023)

Test system: caspase 3
Assay: caspase 3 activity evaluation
Format: cell-based, human
Details: A549, 10, 20 and 50 nM
Method: To further elucidate the mechanism of cell death caused by the cytotoxicity of compound 14b, the Hoechst 33342 fluorochrome was used to observe the nucleus morphology, Annexin V-FITC double staining was performed to distinguish the apoptotic cells, and the caspase 3 colorimetric assay kit was used to detect the activity of caspase 3. […] At the early stage of apoptosis, different types of cells turn phosphatidylserine (PS) out toward the cell surface, that is, the outside of the cell membrane, which can be selectively marked with Annexin V. Additionally, in the late stage of apoptosis, the integrity of cell membrane is lost and can be stained with PI. […] Finally, considering the activation of caspase 3 is a central event in the process of apoptosis, the activity of caspase 3 was also evaluated.
Figure 4 Induction of apoptosis by compound 14b. […] (B) The percentages of cells in each apoptosis quantitated by flow cytometry through Annexin V-FITC double staining analysis. […] (C) The caspase 3 activity detected by the caspase 3 colorimetric assay kit after A549 cells were treated with compound 14b at concentrations of 10, 20 and 50 nM for 24 h. […]
samples were fixed in ice-cold 70% ethanol overnight and removed with ice-cold PBS for three times. […] After the incubation, the prepared cell samples were immediately analyzed. […]

COc1ccc(C(=O)c2ccc3c(ccn3C)c2)c2c1C=CC(C)(C)O2 [compound 14b, (5-methoxy-2,2-dimethyl-2H-chromen-8-yl)(1-methyl-1H-indol-5-yl)methanone]
activity of caspase 3: significantly activated and increased in a dose- and time-dependent manner
